The source of these data is PubChem BioAssay (NCI).

What all share (assay): growth of human tumour cells (NCI), 48 h
Assay [1] concerns A549 NSCLC.
In assay [2] the test system is NCI-H522 lung.
Assay [3] relates to SF-268 CNS.
For assay [4], the system named is SF-539 CNS.
Assay [5] deals with SK-MEL-5 melanoma.
The test system of assay [6] is SK-OV-3 ovarian.
Assay [7] deals with SNB-75 CNS.
The test system of assay [8] is TK-10 renal.
Assay [9] deals with UACC-62 melanoma.
For assay [10], the system named is LOX IMVI melanoma.
Assay [11] concerns RXF 393 renal.
Assay [12] relates to MCF7 breast.
In assay [13] the test system is MDA-MB-435.
Assay [14] relates to NCI/ADR-RES ovarian.

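All cell lines were grown in 96-well plates and treated with compound for 48 hours. TGI marks complete inhibition of growth.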

Consider `CCN(CC)CCCCC1CCN(CC(=O)N2c3ccccc3NC(=O)c3ccccc32)CC1`, for which the TGI in assay [1], in assay [2], in [3], in [4], in assay [5] and in assay [6] was above 100 µM each time. Besides, the TGI in assay [7], in assay [8] and in [9] was above 100 µM throughout.

Turning to `CCCCOC(=O)/C(CC(=O)C=C(C)C)=N\NS(=O)(=O)c1ccc(C)cc1`, the TGI in [1], in assay [10], in assay [2], in assay [11], in assay [3] and in assay [4] was above 100 µM each time. Besides, the TGI in [5], in assay [6], in assay [7], in assay [8] and in [9] was above 100 µM each time.

As for `O=C(O)Cc1cc(=O)oc2cc(O)c(Cl)cc12`, the TGI in [1], in [10], in [2], in assay [3], in [4] and in [5] was above 100 µM throughout. Moreover, the TGI in assay [6], in [7], in assay [8] and in assay [9] was above 100 µM each time.

For `Cc1ccc(S(=O)(=O)N/N=C2\C(=O)C3CC2C(Cl)C3Cl)cc1` (stereo not drawn), the TGI in assay [1], in [10], in assay [3], in assay [5], in assay [6] and in [7] was above 100 µM throughout. In addition, the TGI in assay [8] and in assay [9] was above 100 µM throughout.

In the case of `CCOc1ccc(NCC(=O)N2CC(=O)Nc3ccccc32)cc1`, the TGI in assay [1], in assay [10], in [2], in [11], in [3] and in assay [4] was above 100 µM each time. Besides, the TGI in assay [5], in assay [6], in [7], in [8] and in assay [9] was above 100 µM each time.

Take `CCCOc1ccc(/C=C/c2cc(OC)c(OC)c(OC)c2)cc1`: the TGI in assay [1] was above 100 µM; in [10], above 50.5 µM; in [2] it was 0.478 µM; in assay [11], 0.904 µM; in [3], above 100 µM; in [4], 0.754 µM. Further, the TGI is 0.467 µM in assay [5], 0.603 µM in assay [7], above 100 µM in [8] and above 100 µM in assay [9].

For the compound `CCN=C1NN=C(c2ccccc2)c2cc(Cl)ccc2N1`, the TGI in assay [1] is above 100 µM; in assay [10], 36.7 µM; in assay [2], 30.2 µM; in assay [11], 58 µM; in assay [3], 91.1 µM; in assay [4] it was 35.8 µM. The TGI in assay [5] turned out to be 30.7 µM; in [6] it was 68.7 µM; in assay [7], 45.8 µM; in assay [8] it was 62.7 µM; in assay [9] it was 31.7 µM.

Take `O=C1/C(=C/c2cccc([N+](=O)[O-])c2)COc2ccccc21`: the TGI was above 100 µM in assay [1]; 3.44 µM in [10]; 3.1 µM in assay [2]; 12.8 µM in assay [11]; above 80.3 µM in [3]; 4.99 µM in assay [5]. The TGI in [6] was above 62.8 µM; in assay [7], above 61.5 µM; in assay [8] it was above 95.2 µM; in assay [9], 3.19 µM.

`CC(=O)OC1[C@H]2c3cc4c(cc3CN3CCC(C[C@@H]1OC(C)=O)C23)OCO4` (stereo partly drawn): the TGI in assay [1], in [10], in assay [2], in assay [11], in assay [3] and in [4] was above 75 µM throughout. The TGI in [6], in assay [7], in [8] and in assay [9] was above 75 µM throughout.

On to `N#CCCc1nc2ccc(Br)cc2c(=O)n1-c1ccc(O)c([N+](=O)[O-])c1`, for which the TGI in [1] is above 100 µM; in [10], 35.5 µM; in [2], 31.8 µM; in [11], 32.4 µM; in [3] it was 63.1 µM; in assay [4], 34.4 µM. Further, the TGI in assay [5] is 36.3 µM; in assay [6], 85.2 µM; in assay [7], 83.2 µM; in assay [8], above 100 µM; in assay [9], 38.5 µM.

As to `CCc1cc(Cc2cc(CC)c(NC(=O)C3=CC(=O)CC(c4ccc(OC)cc4)O3)c(CC)c2Cl)c(Cl)c(CC)c1NC(=O)C1=CC(=O)CC(c2ccc(OC)cc2)O1` (stereo not drawn), the TGI in [1] was 43.8 µM; in assay [10] it was 32.4 µM; in [11], 34.7 µM; in assay [3], 58.2 µM; in [4], 38.9 µM; in [5] it was 36.4 µM. In addition, the TGI was determined as 32.2 µM in assay [6], 46.2 µM in assay [7], 51.7 µM in [8] and 63.2 µM in [9].

Take `COc1ccc2c(c1)c(Cc1c(C)n(C)c3ccc(OC)cc13)c(C)n2C`: the TGI in [1], in [10], in [2], in assay [11], in assay [3] and in [4] was above 100 µM each time. Moreover, the TGI in assay [5], in assay [6], in assay [7], in assay [8] and in assay [9] was above 100 µM each time.

For `COC(=O)c1c/c(=N\NC(=O)CC(=O)Nc2ccccc2Cl)c2ccccc2o1`, the TGI in assay [1], in assay [10], in [2], in assay [3], in assay [4] and in assay [5] was above 100 µM in each case. Besides, the TGI in [6], in [7], in assay [8] and in assay [9] was above 100 µM each time.

With `Cc1ccc(S(=O)(=O)N(c2ccccc2F)C2CCCCC2O)cc1` (stereo not drawn), the TGI in [1] was above 100 µM; in [10], above 100 µM; in assay [12] it was 48.5 µM; in assay [13], 48.5 µM; in assay [14], above 100 µM; in assay [3] it was above 100 µM. The TGI in assay [4] was above 100 µM; in assay [5] it was 56.9 µM; in assay [6] it was 64 µM; in [7] it was 88.5 µM; in assay [8] it was above 100 µM; in assay [9], above 100 µM.

With `Clc1ccc(C2=Nc3ccccc3SC(c3ccc(Cl)c(Cl)c3)C2)c(Cl)c1` (stereo not drawn), the TGI in assay [1] stood at 43.6 µM; in assay [10], 21.6 µM; in assay [2] it was 28 µM; in assay [11], 30.5 µM; in [3], 19.9 µM; in assay [4] it was 32.9 µM. Further, the TGI worked out at 32.3 µM in [5]; 52.1 µM in assay [6]; 34.6 µM in [7]; 36.9 µM in assay [8]; 29.4 µM in [9].

Take `CCOC(=O)/C(C#N)=C(O)/C(=C/c1ccccc1Cl)NC(=O)c1ccccc1`: the TGI in [1], in assay [2], in [3], in assay [4], in [5] and in [6] was above 100 µM each time. Moreover, the TGI in assay [7], in assay [8] and in assay [9] was above 100 µM in each case.

As to `c1ccc(C2=NN(c3ccccc3)C3(S2)SC(c2ccccc2)(c2ccccc2)c2ccccc23)cc1` (stereo not drawn), the TGI in assay [1], in assay [10], in assay [2], in assay [3], in assay [4] and in assay [5] was above 100 µM throughout. The TGI in [6], in assay [7], in assay [8] and in [9] was above 100 µM throughout.

For the compound `COc1ccc(CCN2CCC(C#N)(c3ccc(OC)c(OC)c3)CC2)cc1OC`, the TGI in assay [1], in assay [10], in assay [2], in assay [11], in assay [3] and in assay [4] was above 100 µM each time. The TGI in assay [5], in assay [6], in [7], in assay [8] and in assay [9] was above 100 µM each time.

Take `C/C(C=O)=C1\C(O)C[C@]1(C)C1CC(C)(C)CC1O` (stereo partly drawn): the TGI in assay [1], in [10], in assay [2], in assay [11], in assay [3] and in assay [4] was above 100 µM each time. The TGI in [5] and in assay [8] was above 100 µM in each case.

As to `O=C(Nc1ccc(C(F)(F)F)cc1[N+](=O)[O-])C(=O)C(C(=O)c1ccc2ccccc2c1)C1OC(=O)c2ccccc21` (stereo not drawn), the TGI in assay [1] is above 71.3 µM; in [10], 24.1 µM; in [2] it was 16.4 µM; in assay [11], 10.1 µM; in assay [3], 52 µM; in [4], 5.03 µM. Also, the TGI was 18.8 µM in assay [5]; above 100 µM in [6]; 23 µM in [7]; 35 µM in [8]; 20.4 µM in assay [9].

Consider `O=S(=O)(CC1=NC2C=CC=CC2N=C1)NCc1ccccc1` (stereo not drawn), for which the TGI in assay [1], in assay [10], in assay [2], in assay [11], in assay [3] and in [4] was above 100 µM throughout. The TGI in assay [5], in [6], in [7], in assay [8] and in assay [9] was above 100 µM throughout.

Take `CC(=O)Nc1ccc(-c2nnc(SCC(=O)Nc3ccccc3Cl)o2)cc1`: the TGI in assay [1], in assay [10], in assay [2], in [11], in [3] and in assay [4] was above 100 µM in each case. In addition, the TGI in [5], in assay [6], in [7] and in [8] was above 100 µM throughout.

For `Cc1ccc2sc3cc(=O)cc(C)c-3nc2c1`, the TGI in [1] is above 100 µM; in assay [2], above 100 µM; in [3], above 100 µM; in [4], above 100 µM; in [5], 38.4 µM; in [6] it was above 100 µM. The figures for the TGI in assay [7], in assay [8] and in [9] were above 100 µM, above 100 µM and 36 µM, respectively.

In the case of `COc1ccc2c(OC)c3ccoc3nc2c1O`, the TGI in assay [1], in [2], in assay [3], in [4], in assay [5] and in assay [6] was above 100 µM throughout. The TGI in assay [7], in assay [8] and in [9] was above 100 µM each time.

For `COc1ccc(/C=C2/C(=O)N(C(=O)c3ccc(Cl)cc3)N=C2C)cc1OC`, the TGI in [1], in [10], in assay [2], in [3], in assay [4] and in assay [5] was above 100 µM each time. Further, the TGI in assay [6], in [8] and in assay [9] was above 100 µM throughout.

With `O=C(CCN(CCO)CCO)Nc1ccc2c(c1)C(=O)c1ccc(NC(=O)CCN(CCO)CCO)cc1C2=O`, the TGI was above 100 µM in assay [1]; 56.5 µM in assay [10]; 19.7 µM in assay [2]; 79.4 µM in assay [11]; 60.6 µM in assay [3]; 22.3 µM in [4]. In addition, the TGI in assay [5] was 40.7 µM; in [6] it was above 100 µM; in assay [7] it was above 100 µM; in assay [8], above 100 µM; in [9], 27.8 µM.
